In patent US20100055799A1, “TEST AGENT FOR DIAGNOSING DYSPEPSIA” (priority 2006, published 2010):
Like-named read-outs stand apart in the source and are kept apart here.

Legend:
[1] = 2-13C uracil concentration in plasma of patients suspected of post-operative gastroparesis; type: in vivo, human; settings: 20 minutes after oral 100 mg 2-13C uracil (Example 2 granules); patients with decreased or insufficient gastric-emptying function versus normal type
[2] = type: physicochemical
[3] = tested on: gastric-emptying function; experiment: 13C breath test in delayed gastric-emptying model rats (propantheline pretreatment); type: in vivo, rat; settings: propantheline 1 mg/kg i.v. 5 min before 10 mg/kg oral 2-13C uracil; expired air 5-60 min
Experimental: “Propantheline”, an anticholinergic agent, was intravenously administered to rats (female, Wister rat, 8 weeks old: n=3) in such an amount of 1 mg/kg to obtain model animals whose gastric-emptying function was decreased (a delayed gastric-emptying model). […] The expired air samples were collected over time, and the ^13CO2 concentration in each expired air sample was measured.

SMILES: O=c1cc[nH][13c](=O)[nH]1 [2-^13C uracil]
- 2-13C uracil concentrations in plasma [1]: lowered
- Solubility ([2]; pH 2): 0.28 w/v %
- Solubility ([2]; pH 4): 0.28 w/v %
- Solubility ([2]; pH 6): 0.28 w/v %
- Solubility ([2]; pH 8): 0.29 w/v %

SMILES: CC(C)[N+](C)(CCOC(=O)C1c2ccccc2Oc2ccccc21)C(C)C [propantheline, Propantheline]
- 13CO2 concentration (Δ13C value) excreted in expired air versus normal rats [3]: significantly lower

SMILES: O=c1cc[nH]c(=O)[nH]1 [uracil]
- change of solubility depending on the pH of the solution ([2]; pH 2): almost unchanged
